Article PMC6299220 (mBio, 2018)
Converted amounts (≈) assume the structure as drawn.

Experiments:
[1] = tested on: M. tuberculosis DRM167-32x11 (KasA G240S); type: cell-based, Mycobacterium tuberculosis
[2] = tested on: M. tuberculosis DRM167-32x2 (KasA P206T); type: cell-based, Mycobacterium tuberculosis
[3] = tested on: M. tuberculosis DRM167-8x2 (KasA A119T); type: cell-based, Mycobacterium tuberculosis
[4] = tested on: M. tuberculosis DRM167-8x6 (KasA M213L); type: cell-based, Mycobacterium tuberculosis
[5] = tested on: M. tuberculosis DRM167-16x6 (KasA I122S); type: cell-based, Mycobacterium tuberculosis
[6] = tested on: M. tuberculosis DRM167-16x3 (KasA V123A); type: cell-based, Mycobacterium tuberculosis
[7] = tested on: M. tuberculosis DRM167-8x3 (KasA I145T); type: cell-based, Mycobacterium tuberculosis
[8] = tested on: mycolic acid biosynthesis in M. tuberculosis DRM167-32x2 (KasA P206T); type: cell-based, Mycobacterium tuberculosis
[9] = tested on: M. tuberculosis
[10] = tested on: M. tuberculosis TDR116; test: microbe, parasite or virus in culture; type: cell-based; details: Mycobacterium tuberculosis
[11] = tested on: M. tuberculosis TDR31; test: microbe, parasite or virus in culture; type: cell-based; details: Mycobacterium tuberculosis
[12] = tested on: M. tuberculosis mc^24914; test: microbe, parasite or virus in culture; type: cell-based; details: Mycobacterium tuberculosis
[13] = tested on: M. tuberculosis TDR36; test: microbe, parasite or virus in culture; type: cell-based; details: Mycobacterium tuberculosis
[14] = tested on: M. tuberculosis DRM8.3; test: microbe, parasite or virus in culture; type: cell-based; details: Mycobacterium tuberculosis
[15] = tested on: M. tuberculosis DRM5; test: microbe, parasite or virus in culture; type: cell-based; details: Mycobacterium tuberculosis

Structure (SMILES): COc1nc2ccc(Br)cc2cc1[C@@H](c1ccccc1)[C@@](O)(CCN(C)C)c1cccc2ccccc12 [BDQ, bedaquiline]
- MIC [1]: 0.25 µM (≈ 0.139 µg/mL)
- MIC [2]: 0.12 µM (≈ 0.0667 µg/mL)
- MIC [3]: 0.5 µM (≈ 0.278 µg/mL)
- MIC [4]: 0.5 µM (≈ 0.278 µg/mL)
- MIC [5]: 0.5 µM (≈ 0.278 µg/mL)
- MIC [6]: 0.5 µM (≈ 0.278 µg/mL)
- MIC [7]: 1 µM (≈ 0.556 µg/mL)

Structure (SMILES): CCCCS(=O)(=O)Nc1ccc2cnn(C)c2c1 [DG167, N-(1-Methyl-1H-indazol-6-yl)butane-1-sulfonamide]
- MIC [1]: 100 µM (≈ 26.7 µg/mL)
- inhibition of mycolic acid biosynthesis [8]: resistant to DG167-mediated inhibition of mycolic acid biosynthesis
- MIC [2]: >100 µM
- MIC [3]: 50 µM (≈ 13.4 µg/mL)
- frequency of resistant mutants [9]: 1 × 10^−7
- MIC [4]: 3.12 µM (≈ 0.834 µg/mL)
- MIC [10]: 0.2 µM (≈ 0.0535 µg/mL)
- MIC [5]: 50 µM (≈ 13.4 µg/mL)
- MIC [6]: 1.56 µM (≈ 0.417 µg/mL)
- MIC [7]: 6.25 µM (≈ 1.67 µg/mL)
- MIC [11]: 0.2 µM (≈ 0.0535 µg/mL)
- MIC [12]: 0.78 µM (≈ 0.209 µg/mL)

Structure (SMILES): CC[C@@H](CO)NCCN[C@@H](CC)CO [EMB, ethambutol]
- MIC [1]: 1.56 µM (≈ 0.319 µg/mL)
- MIC [2]: 1.56 µM (≈ 0.319 µg/mL)
- MIC [3]: 1.56 µM (≈ 0.319 µg/mL)
- MIC [4]: 1.56 µM (≈ 0.319 µg/mL)
- MIC [5]: 1.56 µM (≈ 0.319 µg/mL)
- MIC [6]: 1.56 µM (≈ 0.319 µg/mL)
- MIC [7]: 1.56 µM (≈ 0.319 µg/mL)

Structure (SMILES): CCc1cc(C(N)=S)ccn1 [ETH, ethionamide]
- MIC [1]: 12.5 µM (≈ 2.08 µg/mL)
- MIC [2]: 12.5 µM (≈ 2.08 µg/mL)
- MIC [3]: 12.5 µM (≈ 2.08 µg/mL)
- MIC [4]: 25 µM (≈ 4.16 µg/mL)
- MIC [5]: 12.5 µM (≈ 2.08 µg/mL)
- MIC [6]: 25 µM (≈ 4.16 µg/mL)
- MIC [7]: 25 µM (≈ 4.16 µg/mL)

Structure (SMILES): NNC(=O)c1ccncc1 [INH, isoniazid]
- MIC [13]: > 12 µM
- MIC [14]: 0.4 µM (≈ 0.0549 µg/mL)
- MIC [1]: 0.19 µM (≈ 0.0261 µg/mL)
- MIC [2]: 0.19 µM (≈ 0.0261 µg/mL)
- MIC [3]: 0.38 µM (≈ 0.0521 µg/mL)
- MIC [4]: 0.38 µM (≈ 0.0521 µg/mL)
- MIC [10]: > 12 µM
- MIC [5]: 0.19 µM (≈ 0.0261 µg/mL)
- MIC [6]: 0.38 µM (≈ 0.0521 µg/mL)
- MIC [15]: 0.4 µM (≈ 0.0549 µg/mL)
- MIC [7]: 0.38 µM (≈ 0.0521 µg/mL)
- MIC [11]: > 12 µM
- MIC [12]: 1.6 µM (≈ 0.219 µg/mL)

Structure (SMILES): COc1c(N2C[C@@H]3CCCN[C@@H]3C2)c(F)cc2c(=O)c(C(=O)O)cn(C3CC3)c12 [Moxi, moxifloxacin]
- MIC [1]: 0.03 µM (≈ 0.012 µg/mL)
- MIC [2]: 0.03 µM (≈ 0.012 µg/mL)
- MIC [3]: 0.03 µM (≈ 0.012 µg/mL)
- MIC [4]: 0.03 µM (≈ 0.012 µg/mL)
- MIC [5]: 0.03 µM (≈ 0.012 µg/mL)
- MIC [6]: 0.03 µM (≈ 0.012 µg/mL)
- MIC [7]: 0.03 µM (≈ 0.012 µg/mL)

Structure (SMILES): O=[N+]([O-])c1cn2c(n1)OC[C@@H](OCc1ccc(OC(F)(F)F)cc1)C2 [PA824]
- MIC [1]: 0.1 µM (≈ 0.0359 µg/mL)
- MIC [2]: 0.1 µM (≈ 0.0359 µg/mL)
- MIC [3]: 0.1 µM (≈ 0.0359 µg/mL)
- MIC [4]: 0.1 µM (≈ 0.0359 µg/mL)
- MIC [5]: 0.1 µM (≈ 0.0359 µg/mL)
- MIC [6]: 0.1 µM (≈ 0.0359 µg/mL)
- MIC [7]: 0.1 µM (≈ 0.0359 µg/mL)

Structure (SMILES): CO[C@H]1/C=C/O[C@@]2(C)Oc3c(C)c(O)c4c(O)c(c(/C=N/N5CCN(C)CC5)c(O)c4c3C2=O)NC(=O)/C(C)=C\C=C\[C@H](C)[C@H](O)[C@@H](C)[C@@H](O)[C@@H](C)[C@H](OC(C)=O)[C@@H]1C [RIF, rifampin]
- MIC [1]: 0.001 µM (≈ 0.000823 µg/mL)
- MIC [2]: 0.001 µM (≈ 0.000823 µg/mL)
- MIC [3]: 0.001 µM (≈ 0.000823 µg/mL)
- MIC [4]: 0.001 µM (≈ 0.000823 µg/mL)
- MIC [5]: 0.001 µM (≈ 0.000823 µg/mL)
- MIC [6]: 0.001 µM (≈ 0.000823 µg/mL)
- MIC [7]: 0.002 µM (≈ 0.00165 µg/mL)

Structure (SMILES): CC(C)=CCC/C(C)=C/CNCCNC1C2CC3CC(C2)CC1C3 (centres unmarked) [SQ109]
- MIC [1]: 0.4 µM (≈ 0.132 µg/mL)
- MIC [2]: 0.4 µM (≈ 0.132 µg/mL)
- MIC [3]: 0.8 µM (≈ 0.264 µg/mL)
- MIC [4]: 0.4 µM (≈ 0.132 µg/mL)
- MIC [5]: 0.4 µM (≈ 0.132 µg/mL)
- MIC [6]: 0.8 µM (≈ 0.264 µg/mL)
- MIC [7]: 0.8 µM (≈ 0.264 µg/mL)
